This note sets out measurements from paper PMC8231342, “Potency of bisresorcinol from Heliciopsis terminalis on skin aging: in vitro bioactivities and molecular interactions” (PeerJ, 2021).

Where “and” joins values, the source holds several entries; their conditions need not be identical. Identical values can stand only once. Like-named read-outs stand apart in the source and are kept apart here.

Holding throughout (assay type): biochemical
Assay [1] relates to Collagenase from Clostridium histolyticum (EC.3.4.24.3). In words: Collagenase inhibition assay (fluorogenic peptide substrate). The procedure: The recent anti-collagenase assay was modified from that previously described by [Widyowati et al. (2016)]. In brief, 50 mmol L^−1 tricine buffer pH 7.5 supplemented with 400 mmol L^−1 NaCl and 10 mmol L^−1 CaCl2 was used as the buffering diluent. Collagenase from Clostridium histolyticum (EC.3.4.24.3) was dissolved in the buffer to a concentration of 1 mg L^−1. The enzyme substrate, MOCAc-PRO-Leu-Gly-Leu-A2pr (Dnp)-Ala-Arg-NH2, was prior dissolved in DMSO and subsequently diluted in the buffer to a concentration of 1 mmol L^−1. A sample dissolved in DMSO was diluted to different concentrations by using the buffer. A 2-µl sample solution was incubated with 100 µl enzyme solution at 37 °C for 10 min. Then, a 50-µl substrate was added and thoroughly mixed. Fluorescence emission (F) at 405 nm was immediately recorded and continually monitored for 30 min using a wavelength of 320 nm for excitation. Caffeic acid was used as a position control (Fig. 1). Negative control was performed with water. The percent inhibition (%) was calculated from the equation below:
%Inhibition={1–(Fsam,30–Fsam,0)÷(Fcont,30–Fcont,0)}×100.

Assay [2] concerns the target porcine pancreatic elastase (EC.3.4.21.36) (Sus scrofa, UniProt P00772). Kind of assay: Elastase inhibition assay (SANA substrate). The procedure: The assay according to [Abhijit & Manjushree (2010)] was applied with some modifications. Briefly, the buffer system was 0.2 mM Tris-HCl buffer (pH 8.0). A solution of 1 µg mL^−1 porcine pancreatic elastase (EC.3.4.21.36) was prepared in sterile water. The enzyme substrate, N-Succinyl-Ala-Ala-Ala-p-nitroanilide (SANA), was dissolved in the buffer to a concentration of 80 mmol L^−1. A sample dissolved in DMSO was diluted to various concentrations by using the buffer. A 100-µl sample solution was mixed with 50 µl enzyme solution and incubated for 15 min. After that 50 µl of the enzyme substrate solution was added and thoroughly mixed. The OD410 was measured immediately (0 min) and after incubation overnight (o/n) at 37 °C by using a microplate reader. Ursolic acid was used as a positive control (Fig. 1), and water was used as a negative control. The percentage inhibition (%) was calculated by the following equation:
%Inhibition={1–[(Asam,o/n–Asam,0)÷(Acont,o/n–Acont,0)]}×100.

In assay [3] the target is Mushroom tyrosinase (EC.1.14.18.1) (Agaricus bisporus, UniProt C7FF04). Kind of assay: Tyrosinase inhibition assay (L-tyrosine substrate). Here is the method:
In brief, the assay was carried out in 0.05 mol L^−1 phosphate buffer pH 6.8. Mushroom tyrosinase (EC.1.14.18.1) was dissolved in the buffer to a concentration of 100 units mL^−1. L-tyrosine, an enzyme substrate, was prepared to a concentration of 0.25 mg mL^−1 in the buffer. […] Into a well of 96-well plates, 10 µl sample and 40 µl L-tyrosine solution were mixed and incubated for 10 min at room temperature. After that 50 µl enzyme solution was inoculated and mixed thoroughly. The reaction was stopped afterward by incubation on ice for 1 min. […] The percentage inhibition (%) was calculated by the equation as follows:
%Inhibition={1–(Asam,10–Asam,0)÷(Acont,10–Acont,0)}×100.

porcine pancreatic elastase (EC.3.4.21.36), sequence (P00772 27-266): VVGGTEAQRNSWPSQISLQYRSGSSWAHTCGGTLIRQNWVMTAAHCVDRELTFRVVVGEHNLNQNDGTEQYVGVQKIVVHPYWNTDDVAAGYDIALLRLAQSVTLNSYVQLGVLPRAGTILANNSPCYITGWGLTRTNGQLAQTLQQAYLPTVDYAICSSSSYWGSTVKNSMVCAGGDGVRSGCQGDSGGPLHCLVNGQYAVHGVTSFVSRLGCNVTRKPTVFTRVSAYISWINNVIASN
Mushroom tyrosinase (EC.1.14.18.1), sequence (C7FF04 2-392): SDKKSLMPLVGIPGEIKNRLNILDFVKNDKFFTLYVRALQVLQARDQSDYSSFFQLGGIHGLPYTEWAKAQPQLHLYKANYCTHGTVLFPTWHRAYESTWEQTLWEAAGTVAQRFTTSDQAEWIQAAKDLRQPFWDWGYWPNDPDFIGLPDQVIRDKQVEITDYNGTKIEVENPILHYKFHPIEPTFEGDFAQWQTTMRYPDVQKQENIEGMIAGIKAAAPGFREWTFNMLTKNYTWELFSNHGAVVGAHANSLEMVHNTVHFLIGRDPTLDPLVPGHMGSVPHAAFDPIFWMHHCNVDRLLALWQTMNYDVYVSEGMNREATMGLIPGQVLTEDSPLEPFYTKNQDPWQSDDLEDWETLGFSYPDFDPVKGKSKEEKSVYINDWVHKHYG

In general, IC50 refers to the midpoint of a concentration-inhibition curve. In the case of `O=C(O)/C=C/c1ccc(O)c(O)c1` [Caffeic acid, caffeic acid, reference compound], the “% inhibition collagenase, ave” value came out at 30.4% in assay [1] (140 uM); 51.1% in assay [1] (280 uM); 72.8% in assay [1] (560 uM); 30.37% in assay [1] (conc 280 uM (14 mM is the stock sample solution)); 51.14% in assay [1] (conc 28 mM); 72.77% in assay [1] (conc 56 mM). Also, the “% inhibition collagenase, N1-N3” value in assay [1] (conc 14 mM, individual replicates) was 37.46% and 22.54% and 31.12%; in assay [1] (conc 28 mM, individual replicates), 50.5% and 50.77% and 52.14%; in assay [1] (conc 56 mM, individual replicates) it was 71.84% and 74.23% and 72.24%. In addition, the IC50 in assay [1] (individual replicates, read-out: ic50 collagenase, N1-N3) is 307 µM and 286 µM and 334 µM; in assay [1] (mean ± SEM, triplicate, read-out: IC50 collagenase inhibition) it was 309 ± 13.7 µM.
`C[C@H]1[C@H](C)CC[C@]2(C(=O)O)CC[C@]3(C)C(=CC[C@@H]4[C@@]5(C)CC[C@H](O)C(C)(C)[C@@H]5CC[C@]43C)[C@H]12` [Ursolic acid, ursolic acid, reference compound]: the “% inhibition elastase, replicates 1-3” value was 25.34% and 30.65% in assay [2] (10 uM, individual replicates); 46.86% and 46.62% in assay [2] (30 uM, individual replicates); 50.36% and 49.93% in assay [2] (35 uM, individual replicates); 53.85% and 54.07% in assay [2] (40 uM, individual replicates); 74.42% and 69.89% in assay [2] (50 uM, individual replicates); 89.73% and 85.61% in assay [2] (100 uM, individual replicates). Further, the inhibition at 10 µM in assay [2] (10 uM, individual replicates, read-out: % inhibition elastase, replicates 1-3) amounted to 26.2%; in assay [2] (10 uM, read-out: % inhibition elastase, ave), 27.4%. In addition, the inhibition at 30 µM was 48.1% in assay [2] (30 uM, individual replicates, read-out: % inhibition elastase, replicates 1-3) and 47.2% in assay [2] (30 uM, read-out: % inhibition elastase, ave). Besides, the inhibition at 35 µM in assay [2] (35 uM, individual replicates, read-out: % inhibition elastase, replicates 1-3) was 51.1%; in assay [2] (35 uM, read-out: % inhibition elastase, ave), 50.5%. In addition, the inhibition at 40 µM came to 53.2% in assay [2] (40 uM, individual replicates, read-out: % inhibition elastase, replicates 1-3) and 53.7% in assay [2] (40 uM, read-out: % inhibition elastase, ave). The “% inhibition elastase, ave” value in assay [2] (50 uM) is 72.36%; in assay [2] (100 uM), 87.51%. The inhibition at 50 µM was determined as 72.8% in assay [2] (50 uM, individual replicates, read-out: % inhibition elastase, replicates 1-3) and 72.4% in assay [2] (50 uM, read-out: % inhibition elastase, ave). For the same compound, the inhibition at 100 µM was 87.2% in assay [2] (100 uM, individual replicates, read-out: % inhibition elastase, replicates 1-3); 87.5% in assay [2] (100 uM, read-out: % inhibition elastase, ave); 80% in assay [2] (at 100 µmol L^−1, read-out: elastase inhibition). For the same compound, the IC50 in assay [2] (individual replicates, read-out: ic50 elastase, N1-N3 (converted)) was 33.2 µM and 35.1 µM and 34.5 µM; in assay [2] (mean ± SEM, triplicate, read-out: IC50 elastase inhibition), 34.3 ± 0.6 µM.
Regarding `OC[C@H]1O[C@@H](Oc2ccc(O)cc2)[C@H](O)[C@@H](O)[C@@H]1O` [β-Arbutin, β-arbutin, reference compound], the inhibition at 12.5 µg/mL worked out at 31.2% in assay [3] (read-out: % inhibition tyrosinase, N1-N3, conc 12.5 ug/ml, individual replicates) and 28.8% in assay [3] (read-out: % inhibition tyrosinase, ave, conc 12.5 ug/ml). Also, the inhibition at 15 µg/mL in assay [3] (read-out: % inhibition tyrosinase, N1-N3, conc 15 ug/ml, individual replicates) was determined as 36.9%; in assay [3] (read-out: % inhibition tyrosinase, ave, conc 15 ug/ml) it was 34.8%. Moreover, the inhibition at 25 µg/mL was determined as 59.7% in assay [3] (read-out: % inhibition tyrosinase, N1-N3, conc 25 ug/ml, individual replicates) and 58.8% in assay [3] (read-out: % inhibition tyrosinase, ave, conc 25 ug/ml). Also, the inhibition at 30 µM in assay [3] (read-out: % inhibition tyrosinase, ave, 30 uM) came out at 18.4%; in assay [3] (read-out: % inhibition tyrosinase, replicates 1-3, 30 uM, individual replicates), 18.7%. Besides, the inhibition at 40 µM in assay [3] (read-out: % inhibition tyrosinase, ave, 40 uM) was 24.9%; in assay [3] (read-out: % inhibition tyrosinase, replicates 1-3, 40 uM, individual replicates) it was 25.7%. In addition, the inhibition at 46 µM is 28.8% in assay [3] (read-out: % inhibition tyrosinase, ave, 46 uM) and 31.2% in assay [3] (read-out: % inhibition tyrosinase, replicates 1-3, 46 uM, individual replicates). The inhibition at 50 µM was determined as 34.4% in assay [3] (read-out: % inhibition tyrosinase, ave, 50 uM) and 30.5% in assay [3] (read-out: % inhibition tyrosinase, replicates 1-3, 50 uM, individual replicates). The inhibition at 92 µM in assay [3] (read-out: % inhibition tyrosinase, ave, 92 uM) worked out at 58.8%; in assay [3] (read-out: % inhibition tyrosinase, replicates 1-3, 92 uM, individual replicates), 59.7%.
